Test results: patent publication US11634409B2, “Compounds for the treatment of BRAF-associated diseases and disorders” (Array BioPharma Inc., priority 2019, dated 2023)
Where two headings read alike, the source gives them in different places.

Legend:
P-gp (MDR1) [1] = target: T1, P-gp (MDR1) (Homo sapiens (Human), UniProt P08183); test: MDR1 efflux ratio in MDR1 transfected LLC-PK1 cells; conditions: for MDR1 efflux ratio: Papp(B−A)/Papp(A−B), MDR1 transfected LLC-PK1 cells, 1 μM; for efflux ratio at 2 h, 1 μM: pig, LLC-PK1
T1 sequence (P08183 whole entry, species assumed): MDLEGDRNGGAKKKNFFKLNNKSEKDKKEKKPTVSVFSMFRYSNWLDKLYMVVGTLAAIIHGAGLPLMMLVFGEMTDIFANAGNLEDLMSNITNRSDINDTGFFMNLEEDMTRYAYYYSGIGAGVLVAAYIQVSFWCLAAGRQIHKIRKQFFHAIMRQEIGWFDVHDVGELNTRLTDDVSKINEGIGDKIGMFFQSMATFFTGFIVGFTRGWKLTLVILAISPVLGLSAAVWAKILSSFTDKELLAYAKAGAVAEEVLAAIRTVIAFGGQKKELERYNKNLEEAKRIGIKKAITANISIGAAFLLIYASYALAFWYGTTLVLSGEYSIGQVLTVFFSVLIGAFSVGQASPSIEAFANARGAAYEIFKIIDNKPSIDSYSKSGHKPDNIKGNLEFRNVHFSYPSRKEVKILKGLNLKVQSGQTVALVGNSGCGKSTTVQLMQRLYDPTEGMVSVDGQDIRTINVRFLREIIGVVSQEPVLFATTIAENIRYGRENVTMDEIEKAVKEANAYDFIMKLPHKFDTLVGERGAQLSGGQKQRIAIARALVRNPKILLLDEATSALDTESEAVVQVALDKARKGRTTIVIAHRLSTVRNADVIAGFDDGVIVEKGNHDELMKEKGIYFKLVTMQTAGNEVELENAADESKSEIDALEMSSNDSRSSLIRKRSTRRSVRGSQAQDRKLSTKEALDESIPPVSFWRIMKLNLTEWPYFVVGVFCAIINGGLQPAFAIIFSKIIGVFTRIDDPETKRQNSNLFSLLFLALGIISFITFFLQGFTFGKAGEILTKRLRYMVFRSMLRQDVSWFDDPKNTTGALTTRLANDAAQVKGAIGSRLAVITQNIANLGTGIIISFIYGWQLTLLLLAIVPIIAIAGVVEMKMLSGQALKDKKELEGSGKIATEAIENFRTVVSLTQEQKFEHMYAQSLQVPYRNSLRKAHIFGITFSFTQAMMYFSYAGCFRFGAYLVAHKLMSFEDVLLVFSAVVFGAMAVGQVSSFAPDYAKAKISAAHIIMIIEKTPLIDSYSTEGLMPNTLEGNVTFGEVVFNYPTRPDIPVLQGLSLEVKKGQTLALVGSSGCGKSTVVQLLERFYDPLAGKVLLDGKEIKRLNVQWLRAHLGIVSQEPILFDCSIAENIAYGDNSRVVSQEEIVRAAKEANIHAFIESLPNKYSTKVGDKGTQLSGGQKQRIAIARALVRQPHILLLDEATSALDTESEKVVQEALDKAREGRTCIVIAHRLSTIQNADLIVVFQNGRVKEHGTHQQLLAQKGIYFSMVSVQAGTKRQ
Description: (§4) Both LLC-PK1 and MDR1 transfected LLC-PK1 cells were cultured and plated according to manufacturer's recommendations with the exception that the passage media contained only 2% fetal bovine serum to extend passage time out to seven days.
(§5) Both positive and negative controls were used to assess functionality of P-gp or BCRP efflux in the assays. […] Final organic concentration in the assay was 1%. All dosing solutions contained 10 μM lucifer yellow to monitor LLC-PK1 or MDCKII cell monolayer integrity.
(§6) For the apical to basolateral determination (A to B), 75 μL of the test article in transport buffer were added to the apical side of the individual transwells and 250 μL of basolateral media, without compound or lucifer yellow, were added to each well. For the basolateral to apical determination (B to A), 250 μL of test article in transport buffer were added to each well and 75 μL transport buffer, without compound or lucifer yellow, were added to each transwell. All tests were performed in triplicate, and each compound was tested for both apical to basolateral and basolateral to apical transport. The plates were incubated for 2 hours on a Lab-Line Instruments Titer Orbital Shaker (VWR, West Chester, Pa.) at 50 rpm and 37° C. with 5% CO2. All culture plates were removed from the incubator and 50 μL of media were removed from the apical and basolateral portion of each well and added to 150 μL of 1 μM labetalol in 2:1 acetonitrile (acetonitrile): H2O, v/v.
(§7) These values were accepted when found to be below 2% for apical to basolateral and 5% basolateral to apical flux across the MDR1-transfected LLC-PK1 or BCRP-transfected MDCKII cell monolayers. The plates were sealed and the contents of each well analyzed by LC-MS/MS. The compound concentrations were determined from the ratio of the peak areas of the compound to the internal standard (labetalol) in comparison to the dosing solution.
(§8) The LC-MS/MS system was comprised of an HTS-PAL autosampler (Leap Technologies, Carrboro, N.C.), an HP1200 HPLC (Agilent, Palo Alto, Calif.), and a MDS Sciex 4000 Q Trap system (Applied Biosystems, Foster City, Calif.). […] The total run time, including re-equilibration, for a single injection was 1.2 minutes. Mass spectrometric detection of the analytes was accomplished using the ion spray positive mode.
(§9) An efflux ratio is calculated from the mean apical to basolateral (A-B) Papp data and basolateral to apical (B-A) Papp data: Efflux ratio=Papp(B−A)/Papp(A−B)

[2] = system: LLC-PK1 or MDCKII cell monolayer; test: MDR1 LLC-PK1 and BCRP MDCKII permeability assay (Papp); conditions: Papp; test article 1 μM, 2 hours, 37° C.
Description: (§10) MDR1 LLC-PK1 and BCRP MDCKII Permeability Assay
as §4
(§11) BCRP transfected MDCKII cells were cultured and plated according to manufacturer's recommendations. Assay conditions included with and without the BCRP-specific inhibitor, KO0143, at a concentration of 0.3 μM to ascertain the contribution of BCRP to the efflux value of the test compound.
as §5, §6, §7, §8
(§12) where Cd, V, t and C0 are the detected concentration (μM), the volume on the dosing side (mL), the incubation time (s) and the initial dosing concentration (μM), respectively. The calculations for Papp were made for each replicate and then averaged.

BCRP [3] = target: T2, BCRP (Homo sapiens (Human), UniProt Q9UNQ0); test: BCRP efflux ratio in BCRP transfected MDCKII cells; conditions: for BCRP efflux ratio: Papp(B−A)/Papp(A−B), BCRP transfected MDCKII cells, 1 μM; for efflux ratio at 2 h, 1 μM: dog
T2 sequence (Q9UNQ0 whole entry, species assumed): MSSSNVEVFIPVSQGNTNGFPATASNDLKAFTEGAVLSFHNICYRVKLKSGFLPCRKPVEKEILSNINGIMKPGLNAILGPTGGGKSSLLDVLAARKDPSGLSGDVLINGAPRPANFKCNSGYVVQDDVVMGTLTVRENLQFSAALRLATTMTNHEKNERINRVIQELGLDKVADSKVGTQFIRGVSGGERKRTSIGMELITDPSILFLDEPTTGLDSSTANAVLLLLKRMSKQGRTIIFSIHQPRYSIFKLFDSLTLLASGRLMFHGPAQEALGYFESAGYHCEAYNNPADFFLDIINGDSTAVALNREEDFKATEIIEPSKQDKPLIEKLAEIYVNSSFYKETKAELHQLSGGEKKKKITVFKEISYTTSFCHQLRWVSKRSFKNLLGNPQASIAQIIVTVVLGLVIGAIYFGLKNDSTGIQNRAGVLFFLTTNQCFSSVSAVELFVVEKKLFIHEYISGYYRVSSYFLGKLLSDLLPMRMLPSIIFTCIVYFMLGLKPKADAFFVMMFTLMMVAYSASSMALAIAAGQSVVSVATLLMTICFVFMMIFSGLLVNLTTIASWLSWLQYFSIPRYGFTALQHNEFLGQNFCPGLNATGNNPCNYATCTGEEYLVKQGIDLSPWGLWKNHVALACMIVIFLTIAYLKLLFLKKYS
Description: as §10, §11, §5, §6, §7, §8, §9

[4] = target: full-length FLAG-tagged B-Raf(V600E) (Homo sapiens (Human), UniProt P15056, V600E); test: BRAF V600E enzyme assay (TR-FRET competitive displacement); format: binding; conditions: averaged IC50; 60 min, ambient temperature
full-length FLAG-tagged B-Raf(V600E), sequence (P15056 whole entry V600E): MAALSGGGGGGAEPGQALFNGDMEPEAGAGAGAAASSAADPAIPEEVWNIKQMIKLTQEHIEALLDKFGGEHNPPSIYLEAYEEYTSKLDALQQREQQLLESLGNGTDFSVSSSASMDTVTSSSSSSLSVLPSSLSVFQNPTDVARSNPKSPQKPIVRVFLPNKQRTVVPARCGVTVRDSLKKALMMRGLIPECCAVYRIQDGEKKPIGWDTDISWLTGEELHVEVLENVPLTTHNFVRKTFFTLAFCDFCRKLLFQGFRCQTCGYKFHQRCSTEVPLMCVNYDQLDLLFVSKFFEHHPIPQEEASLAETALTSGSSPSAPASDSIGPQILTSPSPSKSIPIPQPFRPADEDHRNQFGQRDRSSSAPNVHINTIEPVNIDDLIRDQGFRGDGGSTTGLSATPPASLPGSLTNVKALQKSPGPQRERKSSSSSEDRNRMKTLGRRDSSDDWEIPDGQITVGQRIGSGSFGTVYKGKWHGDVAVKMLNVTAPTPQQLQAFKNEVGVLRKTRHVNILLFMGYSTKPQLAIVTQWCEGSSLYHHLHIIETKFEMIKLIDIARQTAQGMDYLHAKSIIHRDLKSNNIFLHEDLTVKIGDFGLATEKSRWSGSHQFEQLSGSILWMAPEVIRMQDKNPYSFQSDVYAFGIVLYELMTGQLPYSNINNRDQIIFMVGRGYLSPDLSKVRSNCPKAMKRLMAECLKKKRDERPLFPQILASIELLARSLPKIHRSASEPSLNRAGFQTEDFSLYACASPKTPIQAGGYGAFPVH
Description: (§1) A competitive displacement assay was configured for B-Raf that monitors the amount of a fluorescently-tagged “tracer” bound to B-Raf via TR-FRET from an anti-tag Eu-labeled antibody also bound to B-Raf.
(§2) [formula] • where: • Xmax Average Uninhibited Controls • Xm Average Background
(§3) A 4-parameter logistic model was the fit to the POC data for each compound.

[5] = system: LLC-PK1 or MDCKII cell monolayer
Description: as §10, §4, §11, §5, §6, §7, §8, §12

[6] = MDR1 LLC-PK1 and BCRP MDCKII permeability assay (Papp)
Description: as §10, §4, §11, §5, §6, §7, §8, §12

[7] = PK (free brain-to-free plasma ratio) (mouse); format: in vivo; conditions: male CD-1 mice, oral gavage 10 mg/kg, (B/P)*(Bfu/Pfu)
Description: PK (Free Brain-to-Free Plasma Ratio) (Mouse)
The ability of representative compounds to penetrate the BBB in mice was determined by evaluating the unbound brain-to-unbound plasma (also referred to as free brain-to-free plasma) concentration ratio in male CD-1 mice.
Brain samples were stored at −20±5° C. prior to analysis. Concentrations of test compound in mouse brain homogenate were determined by liquid chromatography tandem mass spectrometry (LC-MS/MS) following protein precipitation with acetonitrile. A 12-point calibration curve, ranging from 0.5 to 10,000 ng/mL, was prepared in duplicate. A solution of 400 μg/mL of test compound in dimethyl sulfoxide (DMSO) was serially diluted (3-fold) in 100% DMSO, and then 2.5 μL of each standard solution was added to 100 μL of naïve male CD-1 mice brain homogenate. To mimic the extraction in the standard curve, 2.5 μL of DMSO was added to all test samples. […]
Brain-to-plasma ratios were calculated using the concentration of compound measured in the brain divided by the concentration of compound measured in the plasma. […] Free brain-to-free plasma ratios were calculated by multiplying the brain-to-plasma ratio by the in vitro brain homogenate free fraction divided by the in vitro plasma free fraction using the following equation: (B/P)*(Bfu/Pfu).

GST-tagged B-Raf(V600K) = GST-tagged B-Raf(V600K) (Homo sapiens, UniProt P15056, V600K); test: BRAF V600K enzyme assay (TR-FRET competitive displacement); format: binding; conditions: averaged IC50; 60 min, ambient temperature
GST-tagged B-Raf(V600K), sequence (P15056 2-766 V600K limits assumed): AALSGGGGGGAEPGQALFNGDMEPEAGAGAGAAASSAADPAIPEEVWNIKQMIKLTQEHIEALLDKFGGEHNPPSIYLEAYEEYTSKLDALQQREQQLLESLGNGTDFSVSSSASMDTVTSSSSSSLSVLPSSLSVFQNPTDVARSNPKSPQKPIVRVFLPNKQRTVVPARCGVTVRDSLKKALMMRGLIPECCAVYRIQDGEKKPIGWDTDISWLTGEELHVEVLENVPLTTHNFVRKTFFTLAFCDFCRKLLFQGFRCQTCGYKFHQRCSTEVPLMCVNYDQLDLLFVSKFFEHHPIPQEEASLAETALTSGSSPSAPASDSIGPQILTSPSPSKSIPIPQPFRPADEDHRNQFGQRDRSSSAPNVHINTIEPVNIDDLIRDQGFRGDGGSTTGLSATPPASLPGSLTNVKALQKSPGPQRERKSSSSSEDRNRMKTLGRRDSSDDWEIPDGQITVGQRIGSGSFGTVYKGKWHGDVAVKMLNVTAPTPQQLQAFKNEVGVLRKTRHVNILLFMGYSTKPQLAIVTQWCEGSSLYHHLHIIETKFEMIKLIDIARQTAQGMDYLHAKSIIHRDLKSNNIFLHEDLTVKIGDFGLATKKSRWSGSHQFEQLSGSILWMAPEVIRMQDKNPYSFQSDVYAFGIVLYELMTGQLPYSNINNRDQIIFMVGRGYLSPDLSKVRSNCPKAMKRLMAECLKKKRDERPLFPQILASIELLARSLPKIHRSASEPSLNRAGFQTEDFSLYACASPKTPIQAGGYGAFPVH
Description: as §1, §2, §3

[8] = system: A375-luciferase intracranial tumor xenografts; test: Intracranial A375-luciferase efficacy and survival mouse tumor model; format: in vivo, Female nu/nu NCr mice; conditions: BID PO 60 consecutive days, FIG. 15
Description: Female nu/nu NCr mice from Envigo (Indianapolis, Ind.) were obtained at 5-6 weeks of age and housed in groups of 5. Following a one week minimum acclimation period, mice received orthotopic (i.c.) intracranial injections of 3.0×10^3 A375-luciferase tumor cells suspended in a volume of 10 μL 0.9% sterile Dulbecco's phosphate buffered saline (DPBS) using the top-down approach (Laursen and Belknap, 1986). Seven days post cell implant (Day 1), animals were randomized and sorted into five groups (n=10/group).
Test compounds were given at a dose volume of 10 mL/kg, and vehicles were matched for each group to control for dosing stress, i.e. all groups received twice daily (BID) dose administration by oral gavage (PO) at the relevant dose volumes and schedule shown in Table 9. Tumor growth was monitored by measuring luciferase activity twice per week. Total flux/mouse can vary by an order of magnitude on day 1 of study start (start of dosing). The total flux was normalized per mouse by assigning the first measurement of flux on day 2 as 100%. Body weight loss as an indicator of tumor progression was determined daily during the dosing interval and then as needed (at least once weekly). Survival was evaluated through day 90 (30 days post-dosing cessation).

BCRP [9] = conditions: reported by Mittapalli et al.; cited from earlier work
BCRP [10] = target: T2, BCRP; conditions: dog, 2 h, 1 μM
Description: as §10, §11, §5, §6, §7, §8, §9

P-gp (MDR1) [11] = target: T1, P-gp (MDR1); conditions: pig, LLC-PK1, 2 h, 1 μM
Description: as §4, §5, §6, §7, §8, §9

| Compound | MDR1 efflux ratio (P-gp (MDR1) [1]) | Permeability (*10^−6 cm/s) [2] | BCRP efflux ratio (BCRP [3]) | IC50 [4] [µM] | also measured |
| --- | --- | --- | --- | --- | --- |
| Cc1c(Nc2c(F)cnc(NS(=O)(=O)CC3CC3)c2F)ccc2ncn(C)c(=O)c12 [Example 42, 1-cyclopropyl-N-(4-((3,5-dimethyl-4-oxo-3,4-dihydroquinazolin-6-yl)amino)-3,5-difluoropyridin-2-yl) methanesulfonamide] | 5.26 | 18.35 *10^−6 cm/s | 23.73 | 0.0603 |  |
| CCCS(=O)(=O)Nc1cc(Cl)cc(Nc2ccc3ncn(C)c(=O)c3c2C)c1Cl [Example 48, N-(2,5-dichloro-3-((3,5-dimethyl-4-oxo-3,4-dihydroquinazoli-6-yl)amino)phenyl) propane-1-sulfonamide] |  |  |  |  | Permeability (*10^−6 cm/s) [5]: 25.83 *10^−6 cm/s |
| CCN(C)S(=O)(=O)Nc1ccc(F)c(Nc2ccc3ncn(C)c(=O)c3c2C)c1Cl [Example 54, N-(2-chloro-3-((3,5-dimethyl-4-oxo-3,4-dihydroquinazolin-6-yl)amino)-4-fluorophenyl)-N-ethyl-N-methylamino-1-sulfonamide] |  |  |  |  | Permeability (*10^−6 cm/s) [5]: 35.81 *10^−6 cm/s |
| CCCS(=O)(=O)Nc1ccc(F)c(Oc2ccc3ncn(C)c(=O)c3c2C)c1Cl [Example 55, N-{2-chloro-3-[(3,5-dimethyl-4-oxo-3,4-dihydroquinazolin-6-yl)oxy]-4-fluorophenyl}propane-1-sulfonamide] |  |  |  | 0.0054 | efflux ratio at 2 h, 1 μM (P-gp (MDR1) [1]): 1.1; Papp at 2 h, 1 μM [6]: 23.8 ×10⁻⁶ cm/s; efflux ratio at 2 h, 1 μM (BCRP [3]): 0.83; Kp,uu (unbound brain-to-unbound plasma ratio) [7]: 0.46 to 0.51; IC50 (GST-tagged B-Raf(V600K)): 0.0031 µM |
| CCCS(=O)(=O)Nc1ncc(F)c(Oc2ccc3ncn(C)c(=O)c3c2C)c1Cl [Example 63, N-(3-chloro-4-((3,5-dimethyl-4-oxo-3,4-dihydroquinazolin-6-yl)oxy)-5-fluoropyridin-2-yl)propane-1-sulfonamide] |  |  |  | 0.0028 | efflux ratio at 2 h, 1 μM (P-gp (MDR1) [1]): 1.3; Papp at 2 h, 1 μM [6]: 26.1 ×10⁻⁶ cm/s; efflux ratio at 2 h, 1 μM (BCRP [3]): 7.7; Kp,uu (unbound brain-to-unbound plasma ratio) [7]: 0.34 to 0.4; IC50 (GST-tagged B-Raf(V600K)): 0.0024 µM |
| Cc1c(Nc2c(F)ccc(NS(=O)(=O)CCCF)c2Cl)ccc2ncn(C)c(=O)c12 [Example 82, N-(2-chloro-3-((3,5-dimethyl-4-oxo-3,4-dihydroquinazolin-6-yl)amino)-4-fluorophenyl)-3-fluoropropane-1-sulfonamide] |  |  |  |  | Tumor growth (total bioluminescence, luciferase activity) [8]: significant effect on tumor growth |
| CC(C)(C)c1nc(-c2cccc(NS(=O)(=O)c3c(F)cccc3F)c2F)c(-c2ccnc(N)n2)s1 [dabrafenib] |  |  |  |  | BCRP efflux ratio (BCRP [9]): 21.0 |
| N-(2-chloro-3-((3,5- dimethyl-4-oxo-3,4- dihydroquinazolin-6- yl)amino)-4- fluorophenyl) benzenesulfonamide [Example 49] | 1.24 | 30.68 *10^−6 cm/s | 0.97 | 0.00395 |  |
| N-(2-chloro-3-((3,5- dimethyl-4-oxo-3,4- dihydroquinazolin-6- yl)amino)-4- fluorophenyl) ethanesulfonamide [Example 52] | 1.76 | 28.91 *10^−6 cm/s | 1.28 | 0.226 |  |
| N-(2-chloro-3-((3,5- dimethyl-4-oxo-3,4- dihydroquinazolin-6- yl)amino)-4- fluorophenyl)-1- cyclopropyl- methanesulfonamide [Example 50] | 1.54 | 21.88 *10^−6 cm/s | 1.13 | 0.0661 |  |
| N-(2-chloro-3-((3,5- dimethyl-4-oxo-3,4- dihydroquinazolin-6- yl)amino)-4- fluorophenyl)-2- methylpropane-1- sulfonamide [Example 51] | 1.64 | 27.16 *10^−6 cm/s | 1.28 | 0.0634 |  |
| N-(2-chloro-3-((3,5- dimethyl-4-oxo-3,4- dihydroquinazolin-6- yl)amino)-5- fluorophenyl)-3- fluoropropane-1- sulfonamide [Example 44] | 1.05 | 24.2 *10^−6 cm/s | 2.84 | 0.00605 |  |
| N-(2-cyano-3-((3,5- dimethyl-4-oxo-3,4- dihydroquinazolin-6- yl)amino)phenyl) propane-1-sulfonamide [Example 53] |  |  |  | 0.0094 | BCRP efflux ratio (BCRP [10]): 22.97; MDR1 efflux ratio (P-gp (MDR1) [11]): 2.6; Permeability (*10^−6 cm/s) ([5]; 2 h, 1 μM): 27.13 *10^−6 cm/s |
| N-(3-((3,5-dimethyl-4- oxo-3,4- dihydroquinazolin-6- yl)amino)-2-fluoro-5- methylphenyl)propane- 1-sulfonamide [Example 46] |  |  |  | 0.148 | BCRP efflux ratio (BCRP [10]): 1.48; MDR1 efflux ratio (P-gp (MDR1) [11]): 1.43; Permeability (*10^−6 cm/s) ([5]; 2 h, 1 μM): 30.74 *10^−6 cm/s |
| N-(3-chloro-4-((3,5- dimethyl-4-oxo-3,4- dihydroquinazolin-6- yl)amino)-5- fluoropyridin-2- yl)ethanesulfonamide [Example 45] | 2.47 | 16.56 *10^−6 cm/s | 11.29 | 0.137 |  |
| N-(3-chloro-4-((3,5- dimethyl-4-oxo-3,4- dihydroquinazolin-6- yl)amino)-5- fluoropyridin-2-yl)-1- cyclopropyl- methanesulfonamide [Example 47] | 1.84 | 25.7 *10^−6 cm/s | 7.93 | 0.0417 |  |
| N-(4-((3,5-dimethyl-4- oxo-3,4- dihydroquinazolin-6- yl)amino)-3,5- difluoropyridin-2- yl)ethanesulfonamide [Example 43] | 5.24 | 8.75 *10^−6 cm/s | 26.02 | 0.26 |  |
